# Measured values taken from US6583180B2, “Glucocorticoid receptor modulators” (Abbott Laboratories, priority 2001, dated 2003).
# Target: T1, Human glucocorticoid receptors (Homo sapiens, UniProt P04150)
# T1 construct: made in house; host or cells: Sf9 insect cells, recombinant baculovirus (BAC-TO-BAC)
# T1 sequence (P04150 1-777): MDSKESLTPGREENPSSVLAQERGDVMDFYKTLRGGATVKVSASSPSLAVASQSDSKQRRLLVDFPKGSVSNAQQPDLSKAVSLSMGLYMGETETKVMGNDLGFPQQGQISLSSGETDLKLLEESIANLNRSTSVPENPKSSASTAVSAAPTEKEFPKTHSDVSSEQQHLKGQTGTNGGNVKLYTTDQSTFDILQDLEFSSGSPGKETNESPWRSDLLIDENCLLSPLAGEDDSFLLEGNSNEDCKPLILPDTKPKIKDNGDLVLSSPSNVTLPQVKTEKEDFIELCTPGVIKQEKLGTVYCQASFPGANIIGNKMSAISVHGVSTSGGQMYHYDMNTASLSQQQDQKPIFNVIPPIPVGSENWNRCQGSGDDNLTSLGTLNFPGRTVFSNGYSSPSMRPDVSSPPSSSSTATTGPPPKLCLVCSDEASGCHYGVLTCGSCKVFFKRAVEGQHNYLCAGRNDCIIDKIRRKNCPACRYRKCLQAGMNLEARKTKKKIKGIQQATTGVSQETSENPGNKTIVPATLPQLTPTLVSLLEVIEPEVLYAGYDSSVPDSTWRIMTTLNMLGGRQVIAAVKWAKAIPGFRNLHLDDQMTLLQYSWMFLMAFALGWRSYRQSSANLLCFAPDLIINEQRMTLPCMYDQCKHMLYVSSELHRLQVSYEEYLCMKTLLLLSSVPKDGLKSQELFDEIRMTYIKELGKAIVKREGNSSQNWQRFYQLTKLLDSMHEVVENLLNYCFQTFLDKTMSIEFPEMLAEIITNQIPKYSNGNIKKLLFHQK
# Test: Radioligand filter binding assay, displacement of 3[H]-dexamethasone from hGR
# Details: read-out: GR Binding (% Inhibition at 1.7 μM)
# Source text: Dexamethasone hereafter referred to as dex was purchased from SIGMA. […] Human glucocorticoid receptors were extracted from Sf9 cells infected with a recombinant baculovirus transfer vector containing the cloned hGR genes. Recombinant baculovirus was generated utilizing the BAC-TO-BAC expression system (Life Technologies) in accordance to instruction from the supplier. The hGR coding sequences were cloned into a baculovirus transfer vector by standard techniques. The recombinant baculoviruses expressing hGR were amplified and used to infect Sf9 cells. Infected cells were harvested 48 hrs post infection. […] The concentration of hGR in the extract was measured as specific ^3[H]-dex binding with the G25-assay as described in J. Steroid Biochem. Molec. […] The extract was aliquoted and stored at −70° C.
# The filter binding assay: Dilution series of the test compounds and dex as reference were made from 10 mM (1 mM dex) stock solutions in DMSO. 10 μl of the dilutions was added in duplicates to the wells. The cell extracts were diluted 10 fold in EPMo+MTG buffer (1 mM EDTA, HPO4 20 mM (pH8), 6 mM MTG). […] 110 μl of the diluted ^3[H]-dex were added to the wells. The final concentration of hGR in the experiment was estimated to 1 nM. All preparations were made in […] on ice and with +4° C. temperated buffers. The plates were incubated over night at +4° C. (15-20 hours).
# The incubation was stopped by filtration through GF/B filter on the Tomtec Cellharvester. The filtration on the Tomtec Cellharvester was programmed as follows: 1) Preparation before filtration with EP buffer (1 mM EDTA 20 mM HPO4 (pH8)) 2×[Wash/Asp 0.6 sec., Asp 0.5 sec.]; 2) Prewet of GF/B filter with EP+PEI buffer (EP buffer, 0.3% Polyethylenimine) [Asp 0.8 sec.]; 3) Filtration/harvesting of the 96-well incubation plate 3×[Wash/Asp 0.6 sec., Asp 0.5 sec.]. The GF/B filter was dried for at least 1 hour at 65° C. A MeltiLex scintillation wax was melted onto the filter with the Microsealer. The filter was placed in a samplebag, which was thereafter trimmed with scissors to fit the filter cassette. The cassette were placed in the Microbeta and measured for 1 min/position, returning ccpm (corrected counts per minute).
# b=((bmax−bmin)/(1+(I/IC50)^S))+bminI
# The Microbeta-instrument generates the mean cpm (counts per minute) value/minute and corrects for individual variations between the detectors thus generating corrected cpm values.
row,inhibition at 1.7 µM,Structure (SMILES)
1,87.8%,"Cc1c(NS(C)(=O)=O)cccc1N(Cc1ccccc1)Cc1ccc(Oc2cccc(OC[C@@H]3CCCN3C)c2)cc1 [Example 289, N-(3-{benzyl[4-(3-{[(2S)-1-methylpyrrolidin-2-yl]methoxy}phenoxy)benzyl]amino}-2-methylphenyl)methanesulfonamide]"
2,95.3%,"Cc1c(NS(C)(=O)=O)cccc1N(Cc1ccccc1)Cc1ccc(C(=O)c2cccc(OCC3CCCO3)c2)cc1 (centres unmarked) [Example 244, N-[3-(benzyl{4-[3-(tetrahydrofuran-2-ylmethoxy)benzoyl]benzyl}amino)-2-methylphenyl]methanesulfonamide]"
3,89.9%,"Cc1c(NS(C)(=O)=O)cccc1N(Cc1ccccc1)Cc1ccc(Oc2ccc(OCC(=O)NC3CCOC3=O)cc2)cc1 (centres unmarked) [Example 274, 2-(4-{4-[(benzyl{2-methyl-3-[(methylsulfonyl)amino]phenyl}amino)methyl]phenoxy}phenoxy)-N-(2-oxotetrahydrofuran-3-yl)acetamide]"
4,88.6%,"Cc1c(NS(C)(=O)=O)cccc1N(Cc1ccccc1)Cc1ccc(C(=O)c2cccc(OCCc3ccccc3)c2)cc1 [Example 246, N-[3-(benzyl{4-[3-(2-phenylethoxy)benzoyl]benzyl}amino)-2-methylphenyl]methanesulfonamide]"
5,91.8%,"Cc1c(NS(C)(=O)=O)cccc1N(Cc1ccc(OCc2cc3c(cc2Cl)OCO3)cc1)Cc1ccc(F)cc1F [Example 157, N-{3-[{4-[(6-chloro-1,3-benzodioxol-5-yl)methoxy]benzyl}(2,4-difluorobenzyl)amino]-2-methylphenyl}methanesulfonamide]"
6,96.4%,"Cc1c(NS(C)(=O)=O)cccc1N(Cc1ccccc1)Cc1ccc(Oc2ccc(Cl)c(OCCCC(=O)NCCCC(=O)O)c2)cc1 [Example 319, 4-((4-(5-(4-((benzyl(2-methyl-3-((methylsulfonyl)amino)phenyl)amino)methyl)phenoxy)-2-chlorophenoxy)butanoyl)amino)butanoic acid]"
7,90%,"Cc1c(NS(C)(=O)=O)cccc1N(Cc1ccccc1)Cc1ccc(Oc2ccc(OCCCCC(=O)N[C@@H](CCC(=O)O)C(=O)O)cc2)cc1 [Example 265, N-[5-(4-{4-[(benzyl{2-methyl-3-[(methylsulfonyl)amino]phenyl}amino)methyl]phenoxy}phenoxy)pentanoyl]-L-glutamic acid]"
8,94.2%,"Cc1c(NS(C)(=O)=O)cccc1N(Cc1ccccc1)Cc1ccc(Oc2ccc(OCCCC(=O)NCC(=O)O)cc2)cc1 [Example 251, N-[4-(4-{4-[(benzyl{2-methyl-3-[(methylsulfonyl)amino]phenyl}amino)methyl]phenoxy}phenoxy)butanoyl]glycine]"
9,89.6%,"Cc1c(NS(C)(=O)=O)cccc1N(Cc1ccccc1)Cc1ccc(Oc2cccc(OCC3CC3C(=O)O)c2)cc1 (centres unmarked) [Example 284, 2-[(3-{4-[(benzyl{2-methyl-3-[(methylsulfonyl)amino]phenyl}amino)methyl]phenoxy}phenoxy)methyl]cyclopropanecarboxylic acid]"
10,92.2%,"Cc1c(NS(C)(=O)=O)cccc1N(Cc1ccccc1)Cc1ccc(Oc2ccc(OCCCCC(=O)NCCC(=O)O)cc2)cc1 [Example 262, N-[5-(4-{4-[(benzyl{2-methyl-3-[(methylsulfonyl)amino]phenyl}amino)methyl]phenoxy}phenoxy)pentanoyl]-beta-alanine]"
11,93.1%,"Cc1c(NS(C)(=O)=O)cccc1N(Cc1ccc(OCCc2ccccc2)cc1)Cc1ccc(F)cc1F [Example 158, N-(3-{(2,4-difluorobenzyl)[4-(2-phenylethoxy)benzyl]amino}-2-methylphenyl)methanesulfonamide]"
12,95.4%,"Cc1ncsc1CCOc1cccc(C(=O)c2ccc(CN(Cc3ccccc3)c3cccc(NS(C)(=O)=O)c3C)cc2)c1 [Example 249, N-{3-[benzyl(4-{3-[2-(4-methyl-1,3-thiazol-5-yl)ethoxy]benzoyl}benzyl)amino]-2-methylphenyl}methanesulfonamide]"
13,90%,"Cc1c(NS(C)(=O)=O)cccc1N(Cc1ccccc1)Cc1ccc(Oc2cccc(OCCCC(=O)N3CCCCC3C(=O)O)c2)cc1 (centres unmarked) [Example 281, 1-[4-(3-{4-[(benzyl{2-methyl-3-[(methylsulfonyl)amino]phenyl}amino)methyl]phenoxy}phenoxy)butanoyl]piperidine-2-carboxylic acid]"
14,96.8%,"Cc1c(NS(C)(=O)=O)cccc1N(Cc1ccccc1)Cc1ccc(Oc2ccc(OCCCC(=O)O)cc2)cc1 [Example 233, 4-(4-{4-[(benzyl{2-methyl-3-[(methylsulfonyl)amino]phenyl}amino)methyl]phenoxy}phenoxy)butanoic acid]"
15,90.4%,"CCOc1ccc(CN(Cc2ccc(F)cc2F)c2cccc(NS(C)(=O)=O)c2C)cc1 [Example 142, N-{3-[(2,4-difluorobenzyl)(4-ethoxybenzyl)amino]-2-methylphenyl}methanesulfonamide]"
16,91.9%,"Cc1c(NS(C)(=O)=O)cccc1N(Cc1ccccc1)Cc1ccc(Oc2ccc(OCCCC(=O)NCCC(=O)O)cc2)cc1 [Example 252, N-[4-(4-{4-[(benzyl{2-methyl-3-[(methylsulfonyl)amino]phenyl}amino)methyl]phenoxy}phenoxy)butanoyl]-beta-alanine]"
17,96.3%,"Cc1c(NS(C)(=O)=O)cccc1N(Cc1ccc(Oc2ccc(Cl)c(OCC(=O)O)c2)cc1)Cc1ccc(F)c(F)c1 [Example 313, (2-chloro-5-(4-(((3,4-difluorobenzyl)(2-methyl-3-((methylsulfonyl)amino)phenyl)amino)methyl)phenoxy)phenoxy)acetic acid]"
18,75.2%,"Cc1c(NS(=O)(=O)N(C)C)cccc1N(Cc1ccccc1)Cc1ccccc1 [Example 5, N′-[3-(dibenzylamino)-2-methylphenyl]-N,N-dimethylsulfamide]"
19,77.9%,"Cc1c(NS(C)(=O)=O)cccc1N(Cc1ccccc1)Cc1ccc2c(c1)OCO2 [Example 15, N-{3-[(1,3-benzodioxol-5-ylmethyl)(benzyl)amino]-2-methylphenyl}methanesulfonamide]"
20,94.9%,"CCOC(=O)CCCOc1ccc(Oc2ccc(CN(Cc3ccccc3)c3cccc(NS(C)(=O)=O)c3C)cc2)cc1 [Example 232, ethyl 4-(4-{4-[(benzyl{2-methyl-3-[(methylsulfonyl)amino]phenyl}amino)methyl]phenoxy}phenoxy)butanoate]"
21,91.5%,"Cc1c(NS(C)(=O)=O)cccc1N(Cc1ccccc1)Cc1ccc(Oc2ccc(OCCCCC(=O)NCC(=O)O)cc2)cc1 [Example 261, N-[5-(4-{4-[(benzyl{2-methyl-3-[(methylsulfonyl)amino]phenyl}amino)methyl]phenoxy}phenoxy)pentanoyl]glycine]"
22,92.9%,"Cc1c(NS(C)(=O)=O)cccc1N(Cc1ccccc1)Cc1ccc(C(=O)c2ccc(OC[C@H](O)CO)cc2)cc1 [Example 250, N-(3-{benzyl[4-(4-{[(2R)-2,3-dihydroxypropyl]oxy}benzoyl)benzyl]amino}-2-methylphenyl)methanesulfonamide]"
23,88.1%,"CC(=O)c1cccc(Oc2ccc(CN(Cc3ccc(F)cc3F)c3cccc(NS(C)(=O)=O)c3C)cc2)c1 [Example 140, N-{3-[[4-(3-acetylphenoxy)benzyl](2,4-difluorobenzyl)amino]-2-methylphenyl}methanesulfonamide]"
